Laboratory results reported in patent publication US6881825B1, “Identication of peptides that facilitate uptake and cytoplasmic and/or nuclear transport of proteins, DNA and virues” (University of Pittsburgh of The Commonwealth System of …, priority 1999, dated 2005).
Entries after “also recorded” stand apart in the source; their conditions may differ.

Columns and labels:
rabbit synovial lining = test: In vivo transfer of peptide-conjugated β-gal after injection into rabbit knee; details: for level of uptake of β-gal into rabbit synovial lining: FIG. 4A, injection into rabbit knee, compared with adenoviral vector encoding β-gal
Method: Peptide-β-gal complexes (fusions) were injected into rabbit knee synovial lining, the lining as then removed, washed with wash buffer, fixed with 4% paraformaldehyde, and stained with β-gal.
(§1) Peptide 5 (SEQ ID NO:5) was able to facilitate uptake of β-gal in nearly 100% of the synovial cells in vivo (FIG. 4B).

Hig-82 cells [1] = test: Peptide-β-gal complex internalization, X-gal staining; type: cell-based, rabbit; details: for transduction/transfer activity of the peptide (in words): as summarised with CD spectra and competition data; for relative strength of internalization of β-gal (concentration needed): FIG. 1B, various concentrations of peptide linked to β-gal, 1:1=150 nM of β-gal
Method: (§2) Internalizing peptides 1-6 (SEQ ID Nos:1-6 respectively), which were identified as described above in Example 3, were synthesized, and biotinylated (synthesis and biotinylation performed by the Biotech Center of the University of Pittsburgh). The biotinylated peptides were then conjugated to avidin β-gal or avidin Cy3 at room temperature for 2 hours.
(§3) The peptide conjugates were then added to cells (Hig-82 cells, rabbit synovial cells, human synovial cells, rabbit synovial lining, human primary airway cells HBE 144, human primary islet cells, murine myoblast cells C2C12, dog kidney epithelial cells MDCK, murine fibroblast cells NIH3T3 and murine tumor cells MCA 205 (human synovial cells and human primary airway cells (HBE144) were isolated from patients from the Presbyterian Hospital, University of Pittsburgh by standard techniques for establishing a primary cell culture; human islet cells were provided by the University of Miami and were isolated by standard techniques for establishing a primary cell culture; C2C12, MDCK, 3T3 and MCA205 cells were purchased from ATTC, Bethesda, Md.; all cells were cultured in DMEM and grown to 100% confluency) and incubated while gently rotating at 37° C. for 3 hours with TBS buffer. The cells were then washed 10 times with TBS buffer and fixed with 4% paraformaldehyde at room temperature for 30 minutes. Cells were then washed 3 times with TBS buffer and stained with 1 mg/ml X-gal (Bochringer Mannheim, Indianapolis) at 37° C. overnight for β-gal-conjugated peptides. Cells which were blue indicated the presence of β-gal in the cells. For Cy3-conjugated peptides, fluorescence of the cells as measured by confocal microscopy indicated the ability of the peptide to internalize the Cy3 (a small molecule cargo).
TAT-PTD (YGRKKRRQRRR; SEQ ID NO:21), and a random control peptide (ARPILEHGSDKAT; SEQ ID NO:20). […] In FIG. 1B, various concentrations of peptides linked to β-gal were tested (1:1=150 nM of β-gal).

[2] = tested on: rabbit synovial fibroblasts; test: Internalization of Cy3-labeled peptide/M13 phage complex; type: cell-based; details: FIG. 13D vs control phage
Text: Therefore, the peptides of the present invention are useful for facilitating the internalization of virus and viral vectors.

Hig-82 cells [3] = test: Peptide competition assay for internalization of peptide-conjugated β-gal; type: cell-based, rabbit; details: for blocking of internalization of peptide-conjugated β-gal by non-biotinylated peptide: FIG. 5, conjugates of peptide 2, 3, 4 and 5, 3 hours at 37° C.
Method: A peptide competition assay was carried out to determine the relative efficiency and specificity of the various peptides. The peptides were conjugated to β-gal as described above in Example 4 and incubated with Hig-82 cells grown to 85% confluency in 24 well plates in the presence of non biotinylated peptides for 3 hours at 37° C. in TBS buffer while being gently rotated. The cells were then washed 10 times with TBS buffer, fixed with 4% paraformaldehyde at room temperature for 30 minutes, washed 3 times with TBS buffer, and stained with Xgal, as described above in Example 4, overnight. Cells which stained blue had internalized peptide-conjugated β-gal.

rabbit synovial cells = test: Peptide-β-gal internalization, X-gal staining; type: cell-based; details: rabbit (primary) synovial cells; FIG. 2, 6B
Method: as §2, §3

human synovial cells = test: Peptide-β-gal internalization, X-gal staining; type: cell-based; details: human (primary) synovial cells; FIG. 3, 6C
Method: as §2, §3

MCA 205 tumor cells = test: Intra-tumoral injection of peptide-β-gal complex, X-gal staining of tumor; type: in vivo, mouse; details: day 14 subcutaneous MCA-205 tumors, single intra-tumoral injection
Method: as §1
To make the nucleic acid encoding the peptide-eGFP fusion depicted in FIG. 9A, PCR was employed using 5′ and 3′ primers that encoded the peptide and a his tag, respectively, and had complimentary sequences to eGFP DNA coding sequences. […] MCA 205 tumor cells (5×10^5 cells) were injected subcutaneously into the flank of a C57/BL6 mouse. At day 14, a single intra-tumoral injection of the peptide β-gal complex was performed. The mice were sacrificed 3 hours post-injection and the tumor tissue was isolated, sectioned and stained with X-gal.

Hig-82 cells [4] = test: Internalization of peptide-streptavidin-488 complex, fluorescence and confocal microscopy; type: cell-based, rabbit
Text: See Bayer et al., Histochem. Cytochem. 24:933-939 (1976); Ivanenkov & Menon, Biochim. Biophys. Acta. 1448:463-472 (1999). The use of the 488 flourescent marker allows for analysis of the treated cells by confocal microscopy to determine the exact location of the complexes in the cells.

CD34+/LIN− stem cells = test: Transduction with biotin-peptide/avidin-β-gal complex; type: cell-based; details: FIG. 17
Text: Peptide 5 is biotin labeled and the β-gal is avidin labeled so that they may be linked together by an avidin/biotin interaction. The cells which stained dark were transduced with the peptide/β-gal complex as indicated by an arrow.

HIG82 cells = test: Cell viability by MTT assay (OD 570 nm); type: cell-based, rabbit; details: HIG-82 cells; 100-3.1 μM peptide, three hours; FIG. 14, 15
Method: 2×10^5 cells (HIG82, MCA205 or Jurkatt) were seeded into 24 well plates. Forty-eight hours later, 100 μM, 50 μM, 25 μM, 6.25 μM and 3.1 μM of the either the death peptide (SEQ ID NO:24), peptide 5 alone (SEQ ID NO:5) or the apoptotic peptide alone (SEQ ID NO:23) was added to the cells. To check for cell viability, three hours later, the media was aspirated and 1 ml of scrum-free media containing 0.25 mg of MTT was added to each well and incubated for 4 hours at 37° C. MTT-containing media was then removed and 1 ml of absolute isopropanol containing 0.4N HCl was added. Photographs were taken of the plates, then the cells were harvested and any debris was centrifuged. OD as taken at λ=570 nm. Each sample point was performed in triplicate.

NIH3T3 cells = test: Peptide-β-gal uptake, X-gal staining; type: cell-based, murine; details: FIG. 6I
Method: as §3, with “Cells which were blue indicated the presence of β-gal in the cells.” left out, “cargo). […]” for “cargo).”

[5] = tested on: human β islet primary cells; test: Peptide-β-gal uptake, X-gal staining; type: cell-based; details: FIG. 6F
Method: as §3
(§4) FIG. 9A is a schematic representation of the expression construct encoding the peptide5-eGFP fusion protein.

[6] = tested on: HBE 144 primary human airway epithelial cells; test: Peptide-β-gal uptake, X-gal staining; type: cell-based; details: FIG. 6D
Method: as §3, §4

[7] = tested on: C2C12 murine myoblast cells; test: Peptide-β-gal uptake, X-gal staining; type: cell-based; details: FIG. 6G
Method: as §3, §4

[8] = tested on: MDCK polarized canine kidney cells; test: Peptide-β-gal uptake, X-gal staining; type: cell-based; details: FIG. 6E
Method: as §3, §4

[9] = tested on: MCA205 murine fibrosarcoma cells; test: Peptide-β-gal uptake, X-gal staining; type: cell-based; details: FIG. 6H
Method: as §3, §4

human islets = test: Internalization of peptide5-eGFP fusion protein, fluorescence; type: cell-based; details: peptide fused to eGFP; FIG. 9B-E
human dendritic cells = test: as above; type: cell-based; details: peptide fused to eGFP; FIG. 9F-G
[10] = FIG. 12, 100 fold excess of competitor

Sequence | level of uptake of β-gal into rabbit synovial lining (rabbit synovial lining) | transduction/transfer activity of the peptide (in words) (Hig-82 cells [1]) | internalization of intact M13 phage (and nuclear localization of protein complexes) [2] | blocking of internalization of peptide-conjugated β-gal by non-biotinylated peptide (Hig-82 cells [3]) | internalization of β-gal (rabbit synovial cells) | β-gal staining / internalization in murine tumors in vivo (MCA 205 tumor cells) | other results
ARPILEHGSDKAT (ARPLEHGSDKAT; random peptide library) [reference compound] | no uptake | does not have activity |  |  |  |  | 
KRIHPRLTRSIR (random peptide library) [peptide 2] |  | intermediate activity | able to facilitate internalization and nuclear localization of protein complexes as well as intact M13 phage |  |  |  | 
KRIIQRILSRNS (random peptide library) [peptide 1] |  | lower activity |  | did not block the internalization by any of the peptides | facilitate the internalization of β-gal into rabbit synovial cells |  | internalization of β-gal (human synovial cells): facilitate the internalization of β-gal into human synovial cells
MHKRPTTPSRKM (random peptide library) [peptide 6] |  | only weakly able to transduce cells |  |  |  |  | inhibition of uptake of peptide 2 and 3 (Hig-82 cells [3]; FIG. 12): able to inhibit; transduction/transfer activity of the peptide (in words) (Hig-82 cells [1]; listed as SEQ ID NO:6): lower activity
PIRRRKKLRRLK (random peptide library) [peptide 4] | highest level of uptake | highly active | able to facilitate internalization and nuclear localization of protein complexes as well as intact M13 phage | blocked the internalization of peptide 2 through peptide 6-conjugated β-gal |  |  | 
PPRLRKRRQLNM (random peptide library) [peptide 3] |  | intermediate activity | able to facilitate internalization and nuclear localization of protein complexes as well as intact M13 phage |  | facilitate the internalization of β-gal into rabbit synovial cells | facilitate the internalization of β-gal into murine tumor cells in vivo | relative strength of internalization of β-gal (concentration needed) (Hig-82 cells [1]): achieved internalization of β-gal at a slightly higher concentration
RQIKIWFQNRRMKWKK (antennepedia) [antennapedia peptide, reference compound] |  |  |  |  |  | facilitate the internalization of β-gal into murine tumor cells in vivo | 
RRQRRTSKLMKR (random peptide library) [peptide 5] | highest level of uptake | highly active | detected in the treated cells | blocked the internalization of peptide 2 through peptide 6-conjugated β-gal | facilitate the uptake of β-gal | significant β-gal staining; also recorded: facilitate the internalization of β-gal into murine tumor cells in vivo | synovial cells with uptake of β-gal in vivo (rabbit synovial lining; FIG. 4B, histology, eosin counter-stain): ~100%; inhibition of uptake of TAT-PTD and peptide 5 itself (Hig-82 cells [3]; [10]): significantly inhibit; inhibition of uptake of peptides 3, 4 and antennapedia peptide (Hig-82 cells [3]; [10]): completely inhibit; relative strength of internalization of β-gal (concentration needed) (Hig-82 cells [1]): effect internalization of β-gal linked thereto at a concentration equal to or less than TAT-PTD; uptake of β-gal (Hig-82 cells [1]; FIG. 6A, HIG-82 cells): facilitate the uptake of β-gal; internalization of streptavidin-488 complex (Hig-82 cells [4]; FIG. 13A, biotinylated peptide coupled to streptavidin-488): efficient internalization; nuclear localization of peptide-streptavidin-488 complex (Hig-82 cells [4]; FIG. 13B, confocal microscopy): significant percentage of the peptide-streptavidin-488 complex being found in the nucleus; transduction of stem cells with β-gal (CD34+/LIN− stem cells): transduce CD34+/LIN− stem cells; cell viability (MTT, OD570) (HIG82 cells): did not impair viability; uptake of β-gal (NIH3T3 cells): facilitate the uptake of β-gal; uptake of β-gal [5]: facilitate the uptake of β-gal; uptake of β-gal [6]: facilitate the uptake of β-gal; uptake of β-gal [7]: facilitate the uptake of β-gal; uptake of β-gal [8]: facilitate the uptake of β-gal; uptake of β-gal [9]: facilitate the uptake of β-gal; internalization of eGFP (human islets): facilitate internalization of eGFP in human islets; internalization of β-gal (human synovial cells): facilitate the internalization of β-gal into human synovial cells; also recorded: facilitate the uptake of β-gal; internalization of eGFP (human dendritic cells): facilitate the internalization of EGFP in human dendritic cells
YGRKKRRQRRR (human) [TAT-PTD, reference compound] | highest level of uptake |  |  |  |  |  | 
